The results in this text go back to US20170210751A1, “PRMT5 INHIBITORS AND USES THEREOF” (Epizyme, Inc., priority 2014, published 2017).

T1 sequence (O14744 with tags, fused parts or gaps): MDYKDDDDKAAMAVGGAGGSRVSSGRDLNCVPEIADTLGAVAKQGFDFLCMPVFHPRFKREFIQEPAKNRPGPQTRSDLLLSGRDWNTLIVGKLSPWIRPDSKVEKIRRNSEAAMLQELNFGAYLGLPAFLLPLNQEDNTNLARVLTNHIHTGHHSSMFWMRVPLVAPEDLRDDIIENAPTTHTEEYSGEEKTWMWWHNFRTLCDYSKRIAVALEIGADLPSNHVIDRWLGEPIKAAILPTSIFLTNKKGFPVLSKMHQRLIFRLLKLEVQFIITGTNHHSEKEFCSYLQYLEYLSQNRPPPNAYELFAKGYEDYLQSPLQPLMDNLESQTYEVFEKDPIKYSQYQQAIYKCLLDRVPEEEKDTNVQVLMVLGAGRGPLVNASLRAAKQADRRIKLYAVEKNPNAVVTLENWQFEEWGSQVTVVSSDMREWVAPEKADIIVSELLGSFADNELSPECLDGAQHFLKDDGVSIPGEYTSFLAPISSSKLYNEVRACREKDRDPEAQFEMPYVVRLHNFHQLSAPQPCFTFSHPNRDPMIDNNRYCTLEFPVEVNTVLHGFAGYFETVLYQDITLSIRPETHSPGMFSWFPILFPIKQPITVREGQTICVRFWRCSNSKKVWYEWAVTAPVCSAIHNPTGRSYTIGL
T1 sequence (Q9BQA1 with tags, fused parts or gaps partner limits assumed): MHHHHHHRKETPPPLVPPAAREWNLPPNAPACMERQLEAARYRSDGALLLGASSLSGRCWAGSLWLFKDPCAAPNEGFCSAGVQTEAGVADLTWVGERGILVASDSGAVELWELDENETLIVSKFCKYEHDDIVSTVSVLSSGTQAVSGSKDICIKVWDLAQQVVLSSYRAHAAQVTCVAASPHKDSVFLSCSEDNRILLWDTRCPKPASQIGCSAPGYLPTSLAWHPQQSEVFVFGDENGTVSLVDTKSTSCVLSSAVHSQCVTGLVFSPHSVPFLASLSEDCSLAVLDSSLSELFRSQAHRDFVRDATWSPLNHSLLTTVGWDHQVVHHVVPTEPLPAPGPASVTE

This assay concerns the target T1, PRMT5/MEP50 (Homo sapiens, UniProt O14744).
T1 construct: Flag-PRMT5; made in house; host or cells: Spodoptera frugiperda (SF9) insect cells, baculovirus (pDEST8)
The experiment in a line: PRMT5 Biochemical Assay (PRMT5/MEP50 enzyme assay on peptide substrate, 3H-SAM Flashplate). Conditions: PRMT5/MEP50 4 nM, 3H-SAM 75 nM, peptide 40 nM, 30 min preincubation at 25 degrees Celsius. From the text:
S-adenosylmethionine (SAM), S-adenosylhomocysteine (SAH), bicine, KCl, Tween20, dimethylsulfoxide (DMSO), bovine skin gelatin (BSG), and Tris(2-carboxyethyl)phosphine hydrochloride solution (TCEP) were purchased from Sigma-Aldrich at the highest level of purity possible. ^3H-SAM was purchase from American Radiolabeled Chemicals with a specific activity of 80 Ci/mmol. 384-well streptavidin Flashplates were purchased from PerkinElmer.
Peptide representative of human histone H4 residues 1-15 was synthesized with a C-terminal linker-affinity tag motif and a C-terminal amide cap by 21st Century Biochemicals. The peptide was high high-performance liquid chromatography (HPLC) purified to greater than 95% purity and confirmed by liquid chromatography mass spectrometry (LC-MS). The sequence was Ac-[…][K-Biot]-amide (SEQ ID NO.:3).
Full-length human PRMT5 (NM_006109.3) transcript variant 1 clone was amplified from a fetal brain cDNA library, incorporating flanking 5′ sequence encoding a FLAG tag ([…]) (SEQ ID NO.:4) fused directly to Ala 2 of PRMT5. Full-length human MEP50 (NM_024102) clone was amplified from a human testis cDNA library incorporating a 5′ sequence encoding a 6-histidine tag (MHHHHHH) (SEQ ID NO.:5) fused directly to Arg 2 of MEP50. The amplified genes were sublconed into pENTR/D/TEV (Life Technologies) and subsequently transferred by Gateway™ attL×attR recombination to pDEST8 baculvirus expression vector (Life Technologies).
Recombinant baculovirus and Baculovirus-Infected Insect Cells (BIIC) were generated according to Bac-to-Bac kit instructions (Life Technologies) and Wasilko, 2006, respectively. Protein over-expression was accomplished by infecting exponentially growing Spodoptera frugiperda (SF9) cell culture at 1.2×10^6 cell/ml with a 5000 fold dilution of BIIC stock. Infections were carried out at 27° C. for 72 hours, harvested by centrifugation, and stored at −80° C. for purification.
Flag-PRMT5/6His-MeP50 was eluted with 300 mM Imidazole in the same buffer. The purity of recovered protein was 87%. Reference: Wasilko, D. J. and S. E. Lee: “TIPS: titerless infected-cells preservation and scale-up” Bioprocess J., 5 (2006), pp. 29-32.
General Procedure for PRMT5/MEP50 Enzyme Assays on Peptide Substrates.
The assays were all performed in a buffer consisting of 20 mM Bicine (pH=7.6), 1 mM TCEP, 0.005% BSG, and 0.002% Tween20, prepared on the day of use. Compounds in 100% DMSO (1 ul) were spotted into a polypropylene 384-well V-bottom plates (Greiner) using a Platemate Plus outfitted with a 384-channel head (Thermo Scientific). DMSO (1 ul) was added to Columns 11, 12, 23, 24, rows A-H for the maximum signal control and 1 ul of SAH, a known product and inhibitor of PRMT5/MEP50, was added to columns 11, 12, 23, 24, rows I-P for the minimum signal control. A cocktail (40 ul) containing the PRMT5/MEP50 enzyme and the peptide was added by Multidrop Combi (Thermo-Fisher). The compounds were allowed to incubate with PRMT5/MEP50 for 30 min at 25 degrees Celsius, then a cocktail (10 ul) containing ^3H-SAM was added to initiate the reaction (final volume=51 ul). The final concentrations of the components were as follows: PRMT5/MEP50 was 4 nM, ^3H-SAM was 75 nM, peptide was 40 nM, SAH in the minimum signal control wells was 100 uM, and the DMSO concentration was 1%. The assays were stopped by the addition of non-radioactive SAM (10 ul) to a final concentration of 600 uM, which dilutes the ^3H-SAM to a level where its incorporation into the peptide substrate is no longer detectable. 50 ul of the reaction in the 384-well polypropylene plate was then transferred to a 384-well Flashplate and the biotinylated peptides were allowed to bind to the streptavidin surface for at least 1 hour before being washed three times with 0.1% Tween20 in a Biotek ELx405 plate washer. […]
Turning to `CC(=O)N1CCC(Nc2cc(C(=O)NC[C@H](O)CN3CCc4nc(C)sc4C3)ccn2)CC1` [Compound 1-9], the 50% inhibitory concentration (IC50) is 1 to 10 µM. With `CC(=O)N1CCC(Nc2cc(C(=O)NC[C@H](O)CN3CCc4c(C)csc4C3)ncn2)CC1` [Compound 1-10, (S)-6-((1-acetylpiperidin-4-yl)amino)-N-(2-hydroxy-3-(3-methyl-4,5-dihydrothieno[2,3-c]pyridin-6(7H)-yl)propyl)pyrimidine-4-carboxamide] the figure was below 0.1 µM. Regarding `CC(=O)N1CCC(Nc2cc(C(=O)NC[C@H](O)CN3CCc4sc(C)c(C)c4C3)ccn2)CC1` [Compound 1-15, (S)-2-((1-acetylpiperidin-4-yl)amino)-N-(3-(2,3-dimethyl-6,7-dihydrothieno[3,2-c]pyridin-5(4H)-yl)-2-hydroxypropyl)isonicotinamide], the IC50 was below 0.1 µM. For `O=C(NC[C@H](O)CN1CCc2scnc2C1)c1cc(NC2COC2)ncn1` [Compound 1-21] the value was above 10 µM; for `Cc1nc2c(s1)CCN(C[C@@H](O)CNC(=O)c1cc(NC3COC3)ncn1)C2` [Compound 1-22], above 10 µM. With `Cc1sc2c(c1C)CN(C[C@@H](O)CNC(=O)c1cc(NC3COC3)ncn1)CC2` [Compound 1-24] the figure was below 0.1 µM; with `CC(=O)N1CC(Nc2cc(C(=O)NC[C@H](O)CN3CCc4scnc4C3)ncn2)C1` [Compound 1-25], above 10 µM; with `CC(=O)N1CC(Nc2cc(C(=O)NC[C@H](O)CN3CCc4c(C)csc4C3)ncn2)C1` [Compound 1-26], 0.101 to 1 µM. As for `CC(=O)N1CC(Nc2cc(C(=O)NC[C@H](O)CN3CCc4sc(C)c(C)c4C3)ncn2)C1` [Compound 1-31], the concentration for half-maximal inhibition (IC50) is below 0.1 µM. For `CC(=O)N1CCC(Nc2cc(C(=O)NC[C@H](O)CN3CCc4sc(C)c(C)c4C3)ncn2)CC1` [Compound 1-39] the value was below 0.1 µM; for `OC(COc1cccc(CNC2CCCC2)c1)CN1CCc2ccncc2C1` (centres unmarked) [Compound 2-2, 1-(3-((cyclopentylamino)methyl)phenoxy)-3-(3,4-dihydro-2,7-naphthyridin-2(1H)-yl)propan-2-ol], above 50 µM. In the case of `OC(COc1cccc(CNC2CCCC2)c1)CN1CCc2cnccc2C1` (centres unmarked) [Compound 2-3], the 50% inhibitory concentration (IC50) is above 50 µM. With `Cn1cnc2ccc(-c3cccc(OCC(O)CN4CCc5ncccc5C4)c3)cc21` (centres unmarked) [Compound 2-4, 1-(7,8-dihydro-1,6-naphthyridin-6(5H)-yl)-3-(3-(1-methyl-1H-benzo[d]imidazol-6-yl)phenoxy)propan-2-ol] the figure was 10 to 50 µM.

For `Cn1cc2c(n1)CCN(C[C@@H](O)COc1cccc(-c3ccc4ncn(C)c4c3)c1)C2` [Compound 3-1], the IC50 is above 50 µM. Regarding `Cn1cc2c(n1)CCN(CC(O)COc1cccc(CNC3CCCC3)c1)C2` (centres unmarked) [Compound 3-2], the IC50 is above 50 µM. With `Cn1cnc2c1CCN(C[C@@H](O)COc1cccc(CNC3CCCC3)c1)C2` [Compound 3-3] the figure was above 50 µM; with `Cn1ncc2c1CCN(C[C@@H](O)COc1cccc(-c3ccc4ncn(C)c4c3)c1)C2` [Compound 3-4], above 50 µM.

With `Cn1ncc2c1CCN(C[C@H](O)COc1cccc(-c3ccc4ncn(C)c4c3)c1)C2` [Compound 3-5], the IC50 is above 50 µM. For `Cn1cnc2ccc(-c3cccc(OCC(O)CN4CCc5[nH]nc(-c6ccccc6)c5C4)c3)cc21` (centres unmarked) [Compound 3-6, 1-(3-(1-methyl-1H-benzo[d]imidazol-6-yl)phenoxy)-3-(3-phenyl-6,7-dihydro-1H-pyrazolo[4,3-c]pyridin-5(4H)-yl)propan-2-ol] the value was 10 to 50 µM; for `OC(COc1cccc(CNC2CCCC2)c1)CN1CCc2[nH]cnc2C1` (centres unmarked) [Compound 3-7], above 50 µM. For the molecule `Cn1ncc2c1CCN(CC(O)COc1cccc(CNC3CCCC3)c1)C2` (centres unmarked) [Compound 3-8], the IC50 is above 50 µM. With `Cn1cnc2c1CCN(C[C@H](O)COc1cccc(CNC3CCCC3)c1)C2` [Compound 3-13] the figure was above 50 µM; with `Cn1cnc2c1CN(C[C@@H](O)COc1cccc(CNC3CCCC3)c1)CC2` [Compound 3-15], above 50 µM; with `Cn1cnc2c1CN(C[C@H](O)COc1cccc(CNC3CCCC3)c1)CC2` [Compound 3-16], above 50 µM. For `Cn1cc2c(n1)CCN(C[C@H](O)COc1cccc(-c3ccc4ncn(C)c4c3)c1)C2` [Compound 3-18] the value was above 50 µM; for `CC(=O)N1CCC(Nc2cc(C(=O)NC[C@H](O)CN3CCc4[nH]ncc4C3)ncn2)CC1` [Compound 3-20], 1 to 10 µM.

Consider `OC(COc1ccccc1)CN1CCc2[nH]nc(-c3ccccc3)c2C1` (centres unmarked) [Compound 3-32], for which the IC50 is above 50 µM.

Regarding `CC(=O)N1CCC(Nc2cc(C(=O)NC[C@H](O)CN3CCc4cnn(C)c4C3)ccn2)CC1` [Compound 3-37, (S)-2-((1-acetylpiperidin-4-yl)amino)-N-(2-hydroxy-3-(1-methyl-4,5-dihydro-1H-pyrazolo[3,4-c]pyridin-6(7H)-yl)propyl)isonicotinamide], the IC50 was 0.101 to 1 µM. For `Cn1cc2c(n1)CN(C[C@@H](O)CNC(=O)c1cc(NC3COC3)ncn1)CC2` [Compound 3-42] the value was above 10 µM; for `Cn1ncc2c1CN(C[C@@H](O)CNC(=O)c1cc(NC3COC3)ncn1)CC2` [Compound 3-43], 1 to 10 µM; for `CC(=O)N1CC(Nc2cc(C(=O)NC[C@H](O)CN3CCc4cn(C)nc4C3)ncn2)C1` [Compound 3-48], above 10 µM. For `CC(=O)N1CC(Nc2cc(C(=O)NC[C@H](O)CN3CCc4cnn(C)c4C3)ncn2)C1` [Compound 3-49] the value was 1 to 10 µM; for `CC(=O)N1CCC(Nc2cc(C(=O)NC[C@H](O)CN3CCc4cn(C)nc4C3)ccn2)CC1` [Compound 3-55], 0.101 to 1 µM; for `CC(=O)N1CCC(Nc2cc(C(=O)NC[C@H](O)CN3CCc4cn(C)nc4C3)ncn2)CC1` [Compound 3-59], above 10 µM. For `CC(=O)N1CCC(Nc2cc(C(=O)NC[C@H](O)CN3CCc4cnn(C)c4C3)ncn2)CC1` [Compound 3-60] the value was 0.101 to 1 µM.
